According to US5801165A, “Antiinflammatory, immunosuppressive and antialleric 16, 17-alkylidioxy-steroids” (Rhone-Poulenc Rorer Limited, priority 1992, dated 1998):

What was measured:
[1] = tested on: tyrosine aminotransferase activity, rat liver H4IIE cells; assay: Induction of tyrosine aminotransferase activity in rat liver H4IIE cells; format: cell-based; settings: overnight incubation, maximum of dexamethasone as reference, method defines ED50 = 50% of the maximum achievable increase, read-out: IC50 (induction of tyrosine aminotransferase activity)
Procedure: INDUCTION OF TYROSINE AMINOTRANSFERASE ACTIVITY
Rat liver H4IIE cells are cultured for 4 days until the cells are confluent. The medium is replaced by fresh medium, containing steroid under test (0-100 nM) which is added to triplicate wells. After overnight incubation as above, the medium is removed and the cells are lysed and the extract is equilibrated at 37° C. with α-ketoglutarate and pyridoxal phosphate in phosphate buffer, pH 7.3, in a final volume of 1 ml. Tyrosine aminotransferase activity is initiated by adding tyrosine and incubating at 37° C. for 10 minutes. The reaction is stopped by adding aqueous sodium hydroxide solution (10M). The ultra-violet absorbance of the para-hydroxybenzaldehyde is measured by a plate reader at 340 nm. The maximal absorbance change achieved with the standard (dexamethasone) is used as a reference. The absorbance change for each concentration of steroid under test is calculated as a fraction of the maximal absorption achievable and plotted against steroid concentration. The ED50 is determined as the concentration causing an increase in tyrosine aminotransferase activity of 50% of the maximum achievable. IC50 =0.3 nM

[2] = tested on: antigen-induced mouse ear oedema; assay: Inhibition of antigen-induced mouse ear oedema in-vivo (ovalbumin sensitised mice); settings: topical, 18 hours before intradermal antigen challenge; killed 1 hour later
Procedure: INHIBITION OF MOUSE EAR OEDEMA IN-VIVO (ii) Ovalbumin sensitised mice are challenged with antigen injected into the right ear intradermally under 4% halothane anaesthesia (4% in oxygen, 4 litres/minute for 2 minutes) 18 hours after topical treatment with the steroids [as above in (i)]. The mice are killed 1 hour later, and a 5 mm disc is punched out of each ear, and weighed. The dose reducing the oedema by 50% (ED50) is determined as above.

[3] = tested on: Sephadex-induced lung oedema in rats; assay: animal or person; format: in vivo, male rats (Sprague-Dawley strain)
Procedure: INHIBITION OF RAT LUNG OEDEMA IN-VIVO:
Test compounds are suspended in 1% carboxymethyl-cellulose/0.2% Tween 80 at double the required strength and sonicated to form a suspension. This is administered intra-tracheally (i.t.) to male rats (Sprague-Dawley strain, 6 in each group, each weighing about 350 g) at 0 hours and 24 hours, with the first dose being co-administered with saline and the second with Sephadex G200 [cross-linked dextran] (10 mg/ml) giving a final Sephadex concentration of 5 mg/ml. I.t. dosing is carried out under halothane anaesthesia (4% in oxygen, at 4 litres/minute for 3 minutes). At 48 hours, the rats are killed, final body weight is recorded, and the lungs and thymus are removed and weighed. The doses reducing the Sephadex-induced oedema and the thymus weight by 30% (ED30) are calculated. Airway selectivity is defined as the ratio of thymus involution (ED30) and inhibition of lung oedema (ED30).

[4] = tested on: PMA-induced mouse ear oedema; assay: Inhibition of PMA-induced mouse ear oedema in-vivo; parameters: species or system female mice (CD1 strain); settings: epicutaneous, 18 hours before PMA 1.25 μg/ear; killed 4 hours later
Procedure: INHIBITION OF MOUSE EAR OEDEMA IN-VIVO (i) Steroids are dissolved in acetone and administered epicutaneously to the ventral and dorsal surfaces of the right ear pinna of female mice (CD1 strain, 5 in each group, each weighing about 20 g). 18 Hours later, phorbol myristate acetate (PMA, 1.25 μg/ear) in acetone is applied epicutaneously to the right ear. The mice are killed 4 hours later, and a 5 mm disc is punched out of each ear and weighed. The dose reducing PMA-induced oedema by 50% (ED50) is determined from linear regression.

[5] = tested on: TNF-α release from human peripheral blood monocytes; assay: Inhibition of tumour necrosis factor (TNF-α) release from human peripheral blood monocytes (lipopolysaccharide challenge); format: cell-based; settings: Monocyte, 18 hours incubation with steroid, then 10 ng/ml lipopolysaccharide for 4 hours, read-out: IC50 (steroid concentration reducing TNF-α release by 50%)
Procedure: INHIBITION OF TUMOUR NECROSIS FACTOR (TNF-α) RELEASE FROM HUMAN PERIPHERAL BLOOD MONOCYTES Monocytes are obtained from blood samples taken from normal human donors. The leukocyte population is washed, applied to a discontinuous metrizamide gradient, and fractionated by centrifugation. The monocyte-enriched interface is aspirated, the cells washed and total and differential counts performed to determine the number of monocytes. Cells are allowed to adhere to 96-well plates for 1 to 2 hours, and thereafter incubated (8×10^5 monocytes/well) with the steroid for 18 hours (37° C. in 5% CO2). Cells are challenged with 10 ng/ml lipopolysaccharide for 4 hours and TNF-αis assayed by use of an enzyme-linked immunosorbent assay. TNF-α quantification is performed with goat anti-human TNF-α being used as the coating antibody, rabbit anti-human TNF-α as the second antibody, and goat anti-rabbit IgG horseradish peroxidase as the detection antibody. The IC50 is the steroid concentration reducing TNF-α release by 50%.

## CCC[C@@H]1O[C@@H]2C[C@H]3[C@@H]4C[C@H](F)C5=CC(=O)CC[C@]5(C)[C@@]4(F)[C@@H](O)C[C@]3(C)[C@]2(SC)O1
[1]
  ED50 (induction of tyrosine aminotransferase activity): 0.3 nM
[2]
  Inhibition of antigen-induced mouse ear oedema: ED50: 0.026 μg/ear
[3]; Rattus norvegicus, inhaled or nasal, i.t. at 0 and 24 hours, rats killed at 48 hours, dose reducing Sephadex-induced oedema by 30%
  ED30: 3 µg/kg
[3]; rat, in vivo, 2880 min
  Thymus involution: ED30: 2200 µg/kg
[3]; ratio ED30 thymus involution / ED30 lung oedema, i.t., rat
  Airway selectivity (ratio of thymus involution ED30 and inhibition of lung oedema ED30): 733
[4]
  Inhibition of PMA-induced mouse ear oedema: ED5O: 0.0082 μg/ear
[5]
  IC50: 0.25 nM
